Experimental data published in ChEMBL document CHEMBL1201862, “PubChem BioAssay data set” (2004).
Calls of active or inactive are those of the source. Cut-off read from the data, not from the text of the source: actives have a measured IC50 and inactives only a lower limit.

Molecular target: Envelope glycoprotein gp160 (Human immunodeficiency virus 1, UniProt Q6QLK5)
Test: inhibitors of HIV fusion peptide binding, primary screen, biochemical, uHTS, fluorescence dequenching (AID 1986)

Sequence of Envelope glycoprotein gp160 (Q6QLK5 whole entry, the tested form may be a part): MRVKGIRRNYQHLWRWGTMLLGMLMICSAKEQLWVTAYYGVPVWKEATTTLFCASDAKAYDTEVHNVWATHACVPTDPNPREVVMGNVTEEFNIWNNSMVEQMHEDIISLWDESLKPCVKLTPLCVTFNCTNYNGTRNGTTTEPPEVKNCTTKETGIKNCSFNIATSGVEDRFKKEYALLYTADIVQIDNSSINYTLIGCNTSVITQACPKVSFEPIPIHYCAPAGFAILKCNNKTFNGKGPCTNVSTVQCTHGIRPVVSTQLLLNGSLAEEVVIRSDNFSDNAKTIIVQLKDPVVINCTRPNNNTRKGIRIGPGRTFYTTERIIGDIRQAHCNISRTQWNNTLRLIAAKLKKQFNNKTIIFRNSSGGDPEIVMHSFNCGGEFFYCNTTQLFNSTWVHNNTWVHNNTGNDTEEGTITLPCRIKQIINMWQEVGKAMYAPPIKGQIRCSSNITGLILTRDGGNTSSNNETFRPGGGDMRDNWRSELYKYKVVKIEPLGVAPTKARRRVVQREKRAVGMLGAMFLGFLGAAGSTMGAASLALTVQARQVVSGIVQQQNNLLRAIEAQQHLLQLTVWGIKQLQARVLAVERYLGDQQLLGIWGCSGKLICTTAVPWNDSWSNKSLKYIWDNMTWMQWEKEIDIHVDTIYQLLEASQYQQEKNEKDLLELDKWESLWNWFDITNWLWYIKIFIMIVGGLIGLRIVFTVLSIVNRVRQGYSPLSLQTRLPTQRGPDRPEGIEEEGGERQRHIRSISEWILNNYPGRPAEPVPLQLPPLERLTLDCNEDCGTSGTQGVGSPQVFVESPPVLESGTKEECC

COc1cc(/C=C2/C(=O)NN(c3ccc(C)c(Cl)c3)C2=O)cc([N+](=O)[O-])c1O
IC50: 30.2 µM (active)

COc1ccc(O)c(C(=O)c2cc(SCC(=O)O)c3nc4sc5c(c4c(=O)n3c2)CCCC5)c1
IC50: 14.2 µM (active)

O=C(CCN1C(=O)/C(=C\c2ccccc2F)SC1=S)Nc1ccc(C(=O)O)c(O)c1
IC50: 15.1 µM (active)

O=[N+]([O-])c1cc(Cl)cc(/C=N/NC(=S)Nc2ccc(S(=O)(=O)N3CCOCC3)cc2)c1O
IC50: 28.2 µM (active)
